Where two headings read alike, the source gives them in different places. One block for each compound: values may come before it.
Assays:
[1] = biological target: T1, B. thetaiotaomicron VPI-5482 Kdn-9-P phosphatase (Bacteroides thetaiotaomicron, UniProt Q8A712); test: […] NMR coupled assay, Kdn-9-P generated in situ by P. parvum Kdn-9-P synthetase; assay type: biochemical; details: coupled with Kdn-9-P synthetase, 10 mM PEP, 8 mM Man-6-P, 2 mM MgCl2, 50 mM HEPES pD 7.5, 1 h
T1 construct: gene BT_1713
T1 sequence (Q8A712 whole entry, change not shown): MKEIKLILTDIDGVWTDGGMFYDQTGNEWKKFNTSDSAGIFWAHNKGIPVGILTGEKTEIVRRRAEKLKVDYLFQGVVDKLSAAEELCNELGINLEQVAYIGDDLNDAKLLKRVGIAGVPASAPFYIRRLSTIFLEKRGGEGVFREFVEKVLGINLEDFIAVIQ

[2] = tested on: T2, Kdn-9-P synthetase (CAMPEP_0191217894); test: BioMol Green colorimetric phosphate-release assay, Michaelis-Menten; assay type: biochemical, Prymnesium parvum; details: 50 mM HEPES pH 7.5, 2 mM MgCl2, 25 °C
T2 construct: no truncation stated

Structure (SMILES): O=C(O)C1(O)C[C@H](O)[C@@H](O)[C@H]([C@H](O)[C@H](O)COP(=O)(O)O)O1 (stereo partly drawn) [Kdn-9-P]
31P NMR coupled assay, Kdn-9-P generated in situ by P. parvum Kdn-9-P synthetase [1]: is accepted by B. thetaiotaomicron VPI-5482 Kdn-9-P phosphatase

Km ([2]; 100 μM PEP, read-out: (Man-6-P)Km): 63.6 ± 10.5 µM
Structure (SMILES): O=P(O)(O)OC[C@H]1OC(O)[C@@H](O)[C@@H](O)[C@@H]1O (stereo partly drawn) [Man-6-P]

Km ([2]; 100 μM Man-6-P, read-out: (PEP)Km): 18.3 ± 1.8 µM
Structure (SMILES): C=C(OP(=O)(O)O)C(=O)O [PEP]

Reference: PMC6200933, “Identification of a Kdn biosynthesis pathway in the haptophyte Prymnesium parvum suggests widespread sialic acid biosynthesis among microalgae” (The Journal of Biological Chemistry, 2018)
